# US20080114007A1 (priority 2006, published 2008)
# Target: CSF-1R (Homo sapiens, UniProt P07333)
# Assay: Peptide (non-phosphorylated) assay, fluorescence polarization competition immunoassay
# Format: biochemical
# Conditions: 0.7 nM CSF-1R, 308 μM SYEGNSYTFIDPTQ peptide, 1 mM ATP, 80 min; mean of at least three determinations; read-out: c-fms Peptide IC50
# In short: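 Human CSF-1R kinase reaction started with ATP and run 80 min at room temperature, then stopped with EDTA. Phosphopeptide detected by fluorescence polarization competition using anti-phosphotyrosine antibody and PTK green tracer after 30 min. Controls used 4% DMSO, with EDTA added before reaction start for positive controls.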
# Chain of CSF-1R (P07333 20-972): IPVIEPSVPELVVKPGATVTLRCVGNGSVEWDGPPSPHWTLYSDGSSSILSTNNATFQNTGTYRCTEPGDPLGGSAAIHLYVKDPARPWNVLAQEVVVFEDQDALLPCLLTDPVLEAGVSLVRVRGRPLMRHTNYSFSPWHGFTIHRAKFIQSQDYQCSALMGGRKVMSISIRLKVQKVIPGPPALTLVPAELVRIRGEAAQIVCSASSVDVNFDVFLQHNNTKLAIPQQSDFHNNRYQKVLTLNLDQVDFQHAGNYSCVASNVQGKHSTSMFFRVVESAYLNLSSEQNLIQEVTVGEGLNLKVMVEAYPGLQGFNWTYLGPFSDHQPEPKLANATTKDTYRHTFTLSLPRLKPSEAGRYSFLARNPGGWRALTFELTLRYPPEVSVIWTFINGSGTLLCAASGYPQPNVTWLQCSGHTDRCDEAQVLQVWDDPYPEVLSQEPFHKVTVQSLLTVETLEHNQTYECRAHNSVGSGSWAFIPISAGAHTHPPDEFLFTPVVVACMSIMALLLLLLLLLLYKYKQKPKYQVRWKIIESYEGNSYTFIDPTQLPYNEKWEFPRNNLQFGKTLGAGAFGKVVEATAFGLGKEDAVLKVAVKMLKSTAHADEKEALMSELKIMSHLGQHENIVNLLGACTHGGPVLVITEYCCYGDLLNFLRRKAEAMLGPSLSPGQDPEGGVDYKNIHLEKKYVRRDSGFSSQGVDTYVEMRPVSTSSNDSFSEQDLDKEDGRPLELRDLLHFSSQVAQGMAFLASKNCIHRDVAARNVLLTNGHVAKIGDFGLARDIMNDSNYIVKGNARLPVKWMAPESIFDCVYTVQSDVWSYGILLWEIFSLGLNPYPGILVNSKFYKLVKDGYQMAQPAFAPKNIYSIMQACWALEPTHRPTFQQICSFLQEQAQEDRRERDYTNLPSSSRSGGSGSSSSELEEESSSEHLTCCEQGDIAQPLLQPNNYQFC
row,Structure (SMILES),IC50 [nM]
1,"CONC(=O)c1cn(-c2ccc3c(c2)CCC3)c2nc(Nc3ccc(CCN4CC(O)C4)cc3)ncc2c1=O [Cpd 254, 2-{4-[2-(3-hydroxy-azetidin-1-yl)-ethyl]-phenylamino}-8-indan-5-yl-5-oxo-5,8-dihydro-pyrido[2,3-d]pyrimidine-6-carboxylic acid methoxy-amide]",0.52
2,"CONC(=O)c1cn(-c2ccc3c(c2)CCC3)c2nc(Nc3ccc(CCN4CC[C@H](O)C4)cc3)ncc2c1=O [Cpd 255, 2-(4-{2-[(3S)-(3-hydroxy-pyrrolidin-1-yl)]-ethyl}-phenylamino)-8-indan-5-yl-5-oxo-5,8-dihydro-pyrido[2,3-d]pyrimidine-6-carboxylic acid methoxy-amide]",0.67
3,"CONC(=O)c1cn(-c2ccc3c(c2)CCC3)c2nc(Nc3ccc(CCN4CCCC(F)C4)cc3)ncc2c1=O (stereo not shown) [Cpd 256, 2-{4-[2-(3-fluoro-piperidin-1-yl)-ethyl]-phenylamino}-8-indan-5-yl-5-oxo-5,8-dihydro-pyrido[2,3-d]pyrimidine-6-carboxylic acid methoxy-amide]",0.88
4,"CCc1ccc(-n2cc(C(=O)NOC)c(=O)c3cnc(Nc4ccc(OCCOC)cc4)nc32)cc1 [Cpd 257, 8-(4-ethyl-phenyl)-2-[4-(2-methoxy-ethoxy)-phenylamino]-5-oxo-5,8-dihydro-pyrido[2,3-d]pyrimidine-6-carboxylic acid methoxy-amide]",1.2
5,"COCCOc1ccc(Nc2ncc3c(=O)c(C(=O)NOC)cn(-c4ccc5c(c4)CCC5)c3n2)cc1 [Cpd 258, 8-indan-5-yl-2-[4-(2-methoxy-ethoxy)-phenylamino]-5-oxo-5,8-dihydro-pyrido[2,3-d]pyrimidine-6-carboxylic acid methoxy-amide]",0.94
6,"CONC(=O)c1cn(-c2ccc3c(c2)C=CC3)c2nc(Nc3ccc(C4CCN(C)CC4)cc3)ncc2c1=O [Cpd 259, 8-(1H-inden-5-yl)-2-[4-(1-methyl-piperidin-4-yl)-phenylamino]-5-oxo-5,8-dihydro-pyrido[2,3-d]pyrimidine-6-carboxylic acid methoxy-amide]",0.7
7,"CCc1ccc(-n2cc(C(=O)NOC)c(=O)c3cnc(Nc4ccc(CCN5CCC5)cc4)nc32)cc1 [Cpd 260, 2-[4-(2-azetidin-1-yl-ethyl)-phenylamino]-8-(4-ethyl-phenyl)-5-oxo-5,8-dihydro-pyrido[2,3-d]pyrimidine-6-carboxylic acid methoxy-amide]",0.61
8,"COCCOc1cccc(Nc2ncc3c(=O)c(C(=O)NOC)cn(-c4ccc5c(c4)CCC5)c3n2)c1 [Cpd 261, 8-indan-5-yl-2-[3-(2-methoxy-ethoxy)-phenylamino]-5-oxo-5,8-dihydro-pyrido[2,3-d]pyrimidine-6-carboxylic acid methoxy-amide]",0.95
9,"CONC(=O)c1cn(-c2ccc3c(c2)CCC3)c2nc(Nc3ccc(CCN4CCC4)cc3)ncc2c1=O [Cpd 262, 2-[4-(2-azetidin-1-yl-ethyl)-phenylamino]-8-indan-5-yl-5-oxo-5,8-dihydro-pyrido[2,3-d]pyrimidine-6-carboxylic acid methoxy-amide]",0.59
10,"CCN1CC[C@H](Oc2cccc(Nc3ncc4c(=O)c(C(=O)NOC)cn(-c5ccc6c(c5)CCC6)c4n3)c2)C1 [Cpd 263, 2-{3-[(3S)-(1-ethyl-pyrrolidin-3-yloxy)]-phenylamino}-8-indan-5-yl-5-oxo-5,8-dihydro-pyrido[2,3-d]pyrimidine-6-carboxylic acid methoxy-amide]",0.56
11,"CONC(=O)c1cn(-c2ccc3c(c2)CCC3)c2nc(Nc3ccc(OC4CN5CCC4CC5)cc3)ncc2c1=O (stereo not shown) [Cpd 264, 2-[4-(1-aza-bicyclo[2.2.2]oct-3-yloxy)-phenylamino]-8-indan-5-yl-5-oxo-5,8-dihydro-pyrido[2,3-d]pyrimidine-6-carboxylic acid methoxy-amide]",0.38
12,"CCc1ccc(-n2cc(C(=O)NOC)c(=O)c3cnc(Nc4ccc(CCN5CC(F)C5)cc4)nc32)cc1 [Cpd 265, 8-(4-ethyl-phenyl)-2-{4-[2-(3-fluoro-azetidin-1-yl)-ethyl]-phenylamino}-5-oxo-5,8-dihydro-pyrido[2,3-d]pyrimidine-6-carboxylic acid methoxy-amide]",0.57
13,"CONC(=O)c1cn(-c2ccc3c(c2)CCC3)c2nc(Nc3ccc(CCN4CC(F)C4)cc3)ncc2c1=O [Cpd 266, 2-{4-[2-(3-fluoro-azetidin-1-yl)-ethyl]-phenylamino}-8-indan-5-yl-5-oxo-5,8-dihydro-pyrido[2,3-d]pyrimidine-6-carboxylic acid methoxy-amide]",0.62
14,"CONC(=O)c1cn(-c2ccc3c(c2)CCC3)c2nc(Nc3cccc(OC4CN5CCC4CC5)c3)ncc2c1=O (stereo not shown) [Cpd 267, 2-[3-(1-aza-bicyclo[2.2.2]oct-3-yloxy)-phenylamino]-8-indan-5-yl-5-oxo-5,8-dihydro-pyrido[2,3-d]pyrimidine-6-carboxylic acid methoxy-amide]",0.42
15,"CCc1ccc(-n2cc(C(=O)NOC)c(=O)c3cnc(Nc4ccc(OC5CN6CCC5CC6)cc4)nc32)cc1 (stereo not shown) [Cpd 268, 2-[4-(1-aza-bicyclo[2.2.2]oct-3-yloxy)-phenylamino]-8-(4-ethyl-phenyl)-5-oxo-5,8-dihydro-pyrido[2,3-d]pyrimidine-6-carboxylic acid methoxy-amide]",0.4
16,"CCc1ccc(-n2cc(C(=O)NOC)c(=O)c3cnc(Nc4ccc(CCN5CC(F)(F)C5)cc4)nc32)cc1 [Cpd 269, 2-{4-[2-(3,3-difluoro-azetidin-1-yl)-ethyl]-phenylamino}-8-(4-ethyl-phenyl)-5-oxo-5,8-dihydro-pyrido[2,3-d]pyrimidine-6-carboxylic acid methoxy-amide]",1.5
17,"CONC(=O)c1cn(-c2ccc3c(c2)CCC3)c2nc(Nc3ccc(CCN4CC(F)(F)C4)cc3)ncc2c1=O [Cpd 270, 2-{4-[2-(3,3-difluoro-azetidin-1-yl)-ethyl]-phenylamino}-8-indan-5-yl-5-oxo-5,8-dihydro-pyrido[2,3-d]pyrimidine-6-carboxylic acid methoxy-amide]",1.6
18,"CONC(=O)c1cn(-c2ccc3c(c2)CCC3)c2nc(Nc3cccc(C4CCCN(C)C4)c3)ncc2c1=O (stereo not shown) [Cpd 271, 8-indan-5-yl-2-[3-(1-methyl-piperidin-3-yl)-phenylamino]-5-oxo-5,8-dihydro-pyrido[2,3-d]pyrimidine-6-carboxylic acid methoxy-amide]",3.2
19,"CONC(=O)c1cn(-c2ccc3c(c2)CCC3)c2nc(Nc3cccc(C4(O)CCN(C)CC4)c3)ncc2c1=O [Cpd 272, 2-[3-(4-hydroxy-1-methyl-piperidin-4-yl)-phenylamino]-8-indan-5-yl-5-oxo-5,8-dihydro-pyrido[2,3-d]pyrimidine-6-carboxylic acid methoxy-amide]",0.88
20,"CONC(=O)c1cn(-c2ccc3c(c2)CCC3)c2nc(Nc3cccc(C4CCN(C)CC4)c3)ncc2c1=O [Cpd 273, 8-indan-5-yl-2-[3-(1-methyl-piperidin-4-yl)-phenylamino]-5-oxo-5,8-dihydro-pyrido[2,3-d]pyrimidine-6-carboxylic acid methoxy-amide]",1
21,"CONC(=O)c1cn(-c2ccc3c(c2)CCC3)c2nc(Nc3cccc(C4(O)CCNC4)c3)ncc2c1=O (stereo not shown) [Cpd 274, 2-[3-(3-hydroxy-pyrrolidin-3-yl)-phenylamino]-8-indan-5-yl-5-oxo-5,8-dihydro-pyrido[2,3-d]pyrimidine-6-carboxylic acid methoxy-amide]",0.44
22,"CONC(=O)c1cn(-c2ccc3c(c2)CCC3)c2nc(Nc3cccc(C4(O)CCCNC4)c3)ncc2c1=O (stereo not shown) [Cpd 275, 2-[3-(3-hydroxy-piperidin-3-yl)-phenylamino]-8-indan-5-yl-5-oxo-5,8-dihydro-pyrido[2,3-d]pyrimidine-6-carboxylic acid methoxy-amide]",0.66
23,"CONC(=O)c1cn(-c2ccc3c(c2)CCC3)c2nc(Nc3cccc(C4(O)CCN(CC(F)(F)F)CC4)c3)ncc2c1=O [Cpd 277, 2-{3-[4-hydroxy-1-(2,2,2-trifluoro-ethyl)-piperidin-4-yl]-phenylamino}-8-indan-5-yl-5-oxo-5,8-dihydro-pyrido[2,3-d]pyrimidine-6-carboxylic acid methoxy-amide]",2.7
24,"CCc1ccc(-n2cc(C(=O)NOC)c(=O)c3cnc(Nc4cccc(C5(O)CCCN(CC)C5)c4)nc32)cc1 (stereo not shown) [Cpd 278, 2-[3-(1-ethyl-3-hydroxy-piperidin-3-yl)-phenylamino]-8-(4-ethyl-phenyl)-5-oxo-5,8-dihydro-pyrido[2,3-d]pyrimidine-6-carboxylic acid methoxy-amide]",4.9
25,"CCc1ccc(-n2cc(C(=O)NOC)c(=O)c3cnc(Nc4ccc5c(c4)CCN5C(C)=O)nc32)cc1 [Cpd 279, 2-(1-acetyl-2,3-dihydro-1H-indol-5-ylamino)-8-(4-ethyl-phenyl)-5-oxo-5,8-dihydro-pyrido[2,3-d]pyrimidine-6-carboxylic acid methoxy-amide]",0.3
26,"CCc1ccc(-n2cc(C(=O)NOC)c(=O)c3cnc(Nc4ccc5c(c4)CCN5S(C)(=O)=O)nc32)cc1 [Cpd 280, 8-(4-ethyl-phenyl)-2-(1-methanesulfonyl-2,3-dihydro-1H-indol-5-ylamino)-5-oxo-5,8-dihydro-pyrido[2,3-d]pyrimidine-6-carboxylic acid methoxy-amide]",0.4
27,"CCc1ccc(-n2cc(C(=O)NOC)c(=O)c3cnc(Nc4ccc5c(c4)N(C(C)=O)CC5)nc32)cc1 [Cpd 281, 2-(1-acetyl-2,3-dihydro-1H-indol-6-ylamino)-8-(4-ethyl-phenyl)-5-oxo-5,8-dihydro-pyrido[2,3-d]pyrimidine-6-carboxylic acid methoxy-amide]",1.5
28,"CCc1ccc(-n2cc(C(=O)NOC)c(=O)c3cnc(Nc4ccc5c(c4)CNCC5)nc32)cc1 [Cpd 282, 8-(4-ethyl-phenyl)-5-oxo-2-(1,2,3,4-tetrahydro-isoquinolin-7-ylamino)-5,8-dihydro-pyrido[2,3-d]pyrimidine-6-carboxylic acid methoxy-amide]",0.2
